Data set [1] can be described thus: Pharmacokinetics of D3-creatine in plasma after a single oral tracer dose. It is filed as in vivo, human. To be noted: healthy subjects. As for the experimental part:
Subjects were housed on the in-patient unit for the full 5 day study. Subjects were admitted on Day-1, for baseline evaluation and acclimation.
(§1) In the older subjects, sampling was extended to 72 hr (24, 36, 48, and 72 hr). Urine was collected continuously beginning at baseline, day −1, through day 5 of the study in timed intervals. On Day −1, subjects entered the clinic prior to noon, and timed urine collections began at 12:00 PM with 12:00 PM being time 0 (0-4, 4-8, 8-12, 12-20 h), and completed at 8:00 AM the next day, Day 1.
(§2) Total body creatine pool size and muscle mass were calculated from D3-creatinine enrichment in urine. Total body muscle mass was measured by MRI (serial cross sections), and total lean body mass (LBM) and appendicular lean mass (ALM) were measured by DXA during the subjects' stay on the inpatient unit.

Data set [2] in a line: Urinary excretion and renal clearance of the D3-creatine tracer dose. It is filed as in vivo, human. As for the experimental part:
as §1, §2
The data were analyzed in SAS v9.2 (SAS Institute, Cary, N.C.) and graphs were produced in either SAS or TSCG. […] There were no adjustments for multiplicity.

The conditions of data set [3]: in vivo, po.
Method: Enrichment of D3-creatinine in urine to total creatinine in urine was determined for each urine collection interval. Achievement of steady-state enrichment was determined by a combination of visual inspection and linear regression. […] Linear regression of the enrichment ratio on time (midpoint of the urine collection interval) was performed for each subject separately. […] The earliest time point included in the final regression was defined as the time to achievement of steady-state.

`[2H]C([2H])([2H])N(CC(=O)O)C(=N)N` [D3-creatine] gave a cleared from plasma in data set [1] (single oral tracer dose 30-100 mg, within 24 h) of about 80%. In addition, the “cleared from plasma by 72 h” value in data set [1] (single oral tracer dose, by 72 h) is “essentially cleared”. In addition, in data set [2] (range across subjects, single oral dose 30-100 mg), the “% of D3-creatine recovered in urine over 120 h” value is 0.1 to 34%.
In the case of D3-creatinine, in data set [2] (human, in vivo), the renal clearance was in the range of 0.26 to 56 mL/min and the “renal clearance as % of the dose” value was 0.1% to 34. Besides, the “time to achievement of steady-state enrichment in urine” value in data set [3] is reported as 30.7 h.

For the origin of these results see patent US20160139154A1, “METHODS FOR DETERMINING TOTAL BODY SKELETAL MUSCLE MASS” (THE REGENTS OF THE UNIVERSITY OF CALIFORNIA, priority 2013, published 2016).
